Legend:
[1] = OPDA assay of vitamin C oxidation delay; assay type: biochemical; details: L-ascorbic acid 0.1%, aptamer 0.001%, hydrogen peroxide, 900 minutes; compared with C332 and other 20 mer aptamers; FIG. 2
Method: In this case, the L-ascorbic acid was mixed at a ratio of 0.1% and the aptamer was mixed at 0.001%. Thereafter, hydrogen peroxide was added to prepare an oxidation condition, and then oxidation of L-ascorbic acid was measured by adding o-phenylenediamine (OPDA), a fluorescent dye. The degree of DHA production may be quantitatively analyzed by measuring the amount of fluorescence from DHA-OPDA generated by the reaction of DHA, an oxide of L-ascorbic acid, with OPDA. Under the above conditions, the amount of fluorescence of DHA-OPDA was measured every 2 minutes for a total of 900 minutes.

[2] = OPDA assay in gastric acid-like low pH environment; assay type: physicochemical; details: pH between 1.4 and 1.6 with hydrochloric acid, hydrogen peroxide, 900 minutes; compared to normal condition; FIG. 3
Method: OPDA assay was used to confirm whether the vitamin C oxidation delay effect of aptamin C320 was maintained in a low pH environment similar to gastric acid in order to confirm that the effect of the substance was not reduced or eliminated by the pH environment in the stomach when ingested orally.
Thereafter, hydrogen peroxide was added to prepare an oxidation condition, and at this time, the pH was adjusted to be between 1.4 and 1.6 using hydrochloric acid, and oxidation of L-ascorbic acid was measured by adding an o-phenylenediamine (OPDA), which is a fluorescent dye. The degree of DHA production can be quantitatively analyzed by measuring the amount of fluorescence from DHA-OPDA generated by the reaction of DHA, an oxide of L-ascorbic acid, with OPDA. Under the above conditions, the fluorescence amount of DHA-OPDA was measured every 2 minutes for a total of 900 minutes.

aptamin C320: 20 mer DNA aptamer, SEQ ID NO: 1, GCCAGTCTCGCGGTGGCGGC, delays oxidation of vitamin C (DNA, backbone and methylation of C not given here)
vitamin C oxidation delay effect (DHA-OPDA fluorescence) [1]: delays the oxidation of vitamin C to the highest extent | maintenance of vitamin C oxidation delay effect in acid condition [2]: maintained without significantly decreasing in acid condition

Reference: US20260166003A1, “NOVEL APTAMER, AND COMPOSITION FOR COGNITIVE FUNCTION IMPROVEMENT AND ANTI-AGING COMPRISING APTAMER AS ACTIVE INGREDIENT” (NEXMOS CO., LTD, priority 2021, published 2026)
